Test results: the supplement of paper PMC11451515

Test system: SEM cells
Test: cell viability relative to DMSO control; higher = less cytotoxic
Conditions: 48 h
In short: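 Leukemia cells (NOMO1 or SEM, 500 cells/well; P12-Ichikawa, 1000 cells/well) were seeded in 5 μl in 1536-well plates after at least four passages of adaptation to each medium. They received library compounds in DMSO by pin dosing, 11 threefold points from 47 μM to 0.79 nM. Luminescence with CellTiter-Glo One was read after 48 h at 37°C. Viability is stated per plate relative to DMSO wells, with cell-free wells as background.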

[1] = HPLM + 10% dialyzed FBS, 0.000781 µM
[2] = HPLM + 10% dialyzed FBS, 0.00234 µM
[3] = HPLM + 10% dialyzed FBS, 0.00702 µM
[4] = HPLM + 10% dialyzed FBS, 0.0211 µM
[5] = HPLM + 10% dialyzed FBS, 0.0632 µM
[6] = HPLM + 10% dialyzed FBS, 0.19 µM
[7] = HPLM + 10% dialyzed FBS, 0.569 µM
[8] = HPLM + 10% dialyzed FBS, 1.71 µM
[9] = HPLM + 10% dialyzed FBS, 5.12 µM
[10] = HPLM + 10% dialyzed FBS, 15.4 µM
[11] = HPLM + 10% dialyzed FBS, 46.1 µM
[12] = RPMI 5 mM glucose + 10% FBS, 0.000781 µM
[13] = RPMI 5 mM glucose + 10% FBS, 0.00234 µM
[14] = RPMI 5 mM glucose + 10% FBS, 0.00702 µM
[15] = RPMI 5 mM glucose + 10% FBS, 0.0211 µM
[16] = RPMI 5 mM glucose + 10% FBS, 0.0632 µM
[17] = RPMI 5 mM glucose + 10% FBS, 0.19 µM
[18] = RPMI 5 mM glucose + 10% FBS, 0.569 µM
[19] = RPMI 5 mM glucose + 10% FBS, 1.71 µM
[20] = RPMI 5 mM glucose + 10% FBS, 5.12 µM
[21] = RPMI 5 mM glucose + 10% FBS, 15.4 µM
[22] = RPMI 5 mM glucose + 10% FBS, 46.1 µM
[23] = RPMI 5 mM glucose + 10% dialyzed FBS, 0.000781 µM
[24] = RPMI 5 mM glucose + 10% dialyzed FBS, 0.00234 µM
[25] = RPMI 5 mM glucose + 10% dialyzed FBS, 0.00702 µM
[26] = RPMI 5 mM glucose + 10% dialyzed FBS, 0.0211 µM
[27] = RPMI 5 mM glucose + 10% dialyzed FBS, 0.0632 µM
[28] = RPMI 5 mM glucose + 10% dialyzed FBS, 0.19 µM
[29] = RPMI 5 mM glucose + 10% dialyzed FBS, 0.569 µM
[30] = RPMI 5 mM glucose + 10% dialyzed FBS, 1.71 µM
[31] = RPMI 5 mM glucose + 10% dialyzed FBS, 5.12 µM
[32] = RPMI 5 mM glucose + 10% dialyzed FBS, 15.4 µM
[33] = RPMI 5 mM glucose + 10% dialyzed FBS, 46.1 µM

SMILES	cell viability [1]	cell viability [2]	cell viability [3]	cell viability [4]	cell viability [5]	cell viability [6]	cell viability [7]	cell viability [8]	cell viability [9]	cell viability [10]	cell viability [11]	cell viability [12]	cell viability [13]	cell viability [14]	cell viability [15]	cell viability [16]	cell viability [17]	cell viability [18]	cell viability [19]	cell viability [20]	cell viability [21]	cell viability [22]	cell viability [23]	cell viability [24]	cell viability [25]	cell viability [26]	cell viability [27]	cell viability [28]	cell viability [29]	cell viability [30]	cell viability [31]	cell viability [32]	cell viability [33]
Cc1[nH]c2ccccc2c1CCNCc1ccc(/C=C/C(=O)NO)cc1	99.1%	114%	112%	114%	116%	75.8%	12.3%	7.29%	8.44%	8.29%	8.77%	85.6%	88.8%	101%	94.3%	92.5%	74.1%	12.6%	5.77%	7.04%	7.05%	7.05%	89.9%	106%	108%	115%	112%	81.6%	19.5%	7.59%	8.77%	8.45%	9.84%
CCOC(=O)\C1=C(/C)N\C2=C(C1C3=CC=C(C=C3)C4=CC=CC=C4)\C(=O)CC(C)(C)C2 (stereo unspecified)	107%	104%	101%	105%	104%	113%	103%	102%	105%	92%	60.4%	101%	122%	134%	114%	144%	108%	110%	112%	108%	96.1%	58.4%	89.4%	116%	111%	98.3%	104%	89.4%	97.5%	103%	89.8%	81.1%	57.6%
CC(C)=CC[C@@H](O)C/1=C/C(=O)C2=C(O)C=CC(=C2C1=O)O	76.2%	90.2%	89.5%	96%	98.3%	97.7%	93.5%	91.4%	98.7%	119%	77.4%	82.4%	76.6%	79.2%	81.9%	93.2%	98.3%	92.3%	105%	86.2%	77.8%	47.1%	72.2%	87.8%	85.8%	95.5%	99%	104%	111%	117%	87.4%	80.4%	21.6%
COc1ccc(-c2ccc3c(N4CCOC[C@@H]4C)nc(N4CCOC[C@@H]4C)nc3n2)cc1CO	101%	58.2%	96.6%	92.1%	87.3%	62.2%	60.3%	53.4%	50.9%	33%	4.42%	110%	52%	118%	101%	89.7%	51%	67.5%	55.8%	36.5%	12.6%	4.05%	105%	53%	110%	88.9%	82.2%	64.7%	67.4%	56.2%	45.7%	34.3%	3.94%
S=P(N1CC1)(N1CC1)N1CC1	102%	106%	110%	96.7%	104%	107%	103%	98.5%	85.1%	93.3%	39%	–	–	–	–	–	–	–	–	–	–	–	99.6%	108%	106%	105%	105%	107%	93.6%	90.4%	95.1%	78.5%	41.5%
COc1cc2ncnc(Nc3ccc(F)c(Cl)c3)c2cc1NC(=O)/C=C/CN1CCCCC1	94.2%	112%	110%	102%	105%	99.1%	94.6%	85.5%	76.7%	71.4%	42.4%	119%	129%	120%	119%	122%	117%	124%	91.3%	88.6%	80.2%	42.3%	97.9%	85.6%	96.4%	116%	93.3%	87%	104%	76.6%	77.6%	66.7%	41.3%
C\C1=C(\C=C(\C#N)C(=O)N1)C2=CC=NC=C2	82.7%	86.9%	91.6%	104%	101%	113%	99.3%	111%	96.7%	126%	113%	109%	92.5%	113%	109%	121%	112%	108%	112%	84.9%	122%	97.8%	115%	101%	111%	130%	118%	117%	96.4%	109%	105%	109%	114%
O=C1c2c(O)ccc(O)c2C(=O)c2c(NCCNCCO)ccc(NCCNCCO)c21	77.4%	81%	88.6%	105%	95%	96.5%	5.15%	14.7%	4.46%	3.34%	3.77%	88.3%	99.7%	127%	116%	97.5%	79.1%	5.41%	10.6%	4.48%	2.93%	3.79%	90%	89%	96.4%	95.7%	97.9%	99%	4.03%	15.7%	4.3%	2.61%	3.1%
O=C(NC[C@H](O)CO)c1ccncc1Nc1ccc(I)cc1F	94.4%	104%	38.1%	118%	106%	105%	88.3%	83.4%	85.7%	85.4%	64.4%	94.4%	97.6%	19.3%	101%	108%	89.2%	85.7%	80.1%	68.3%	64.6%	43.6%	97.2%	108%	35.1%	99%	99.8%	85.3%	84.2%	70.3%	72.7%	56.3%	54.7%
Cc1cnc(-c2cc(N3CCN(C(=O)CC[S+](C)(=O)[O-])CC3)ncc2Cl)c(C)c1	103%	102%	118%	119%	128%	122%	124%	130%	127%	125%	141%	115%	151%	119%	116%	118%	136%	135%	140%	140%	142%	136%	112%	115%	107%	133%	125%	132%	124%	141%	155%	143%	139%
N[C@H](CSC(c1ccccc1)(c1ccccc1)c1ccccc1)C(=O)O	105%	99.3%	113%	99.4%	117%	97%	102%	94%	69.4%	54.9%	14.7%	44.8%	74.6%	75.2%	68.2%	71.1%	60.9%	69.8%	52.3%	47.2%	18.7%	2.79%	100%	105%	122%	86.5%	106%	95.6%	94%	82.1%	60.8%	40.1%	12.8%
CC(N)C12CC3CC(CC(C3)C1)C2 (stereo unspecified)	89.3%	104%	96.8%	110%	98.4%	107%	118%	108%	85.3%	96.1%	108%	102%	100%	120%	122%	113%	117%	118%	123%	94.5%	125%	131%	106%	91.5%	126%	98.2%	115%	115%	117%	118%	88.1%	107%	110%
COc1cc2nccc(Oc3ccc(NC(=O)NC4CC4)c(Cl)c3)c2cc1C(N)=O	116%	117%	126%	118%	108%	108%	88.7%	79.2%	69.1%	56.2%	51.4%	93.5%	117%	105%	98.4%	97.1%	98.8%	72.2%	80.4%	63.2%	44.2%	32.1%	119%	110%	122%	114%	104%	90.8%	81.4%	75%	59.3%	53.7%	47.9%
C#C[C@]1(O)CC[C@H]2[C@@H]3CCc4cc(O)ccc4[C@H]3CC[C@@]21C	86.5%	103%	99.6%	96.6%	92.2%	99.4%	103%	98.9%	105%	68%	47.1%	92.3%	116%	115%	113%	105%	107%	111%	104%	99.8%	62.9%	48.7%	93.7%	111%	108%	108%	108%	98.2%	95.1%	114%	100%	68.8%	57.6%
